Data on 13 molecules can be found in patent publication US11780830B2, “Triazolone derivatives or salts thereof and pharmaceutical compositions comprising the same” (YUHAN CORPORATION, priority 2018, dated 2023).

Common to all, as to format: biochemical
In assay [1] the target is T1, recombinant human VAP-1 (Homo sapiens, UniProt Q16853).
T1 construct: purchased R&D systems
T1 sequence (Q16853 1-763): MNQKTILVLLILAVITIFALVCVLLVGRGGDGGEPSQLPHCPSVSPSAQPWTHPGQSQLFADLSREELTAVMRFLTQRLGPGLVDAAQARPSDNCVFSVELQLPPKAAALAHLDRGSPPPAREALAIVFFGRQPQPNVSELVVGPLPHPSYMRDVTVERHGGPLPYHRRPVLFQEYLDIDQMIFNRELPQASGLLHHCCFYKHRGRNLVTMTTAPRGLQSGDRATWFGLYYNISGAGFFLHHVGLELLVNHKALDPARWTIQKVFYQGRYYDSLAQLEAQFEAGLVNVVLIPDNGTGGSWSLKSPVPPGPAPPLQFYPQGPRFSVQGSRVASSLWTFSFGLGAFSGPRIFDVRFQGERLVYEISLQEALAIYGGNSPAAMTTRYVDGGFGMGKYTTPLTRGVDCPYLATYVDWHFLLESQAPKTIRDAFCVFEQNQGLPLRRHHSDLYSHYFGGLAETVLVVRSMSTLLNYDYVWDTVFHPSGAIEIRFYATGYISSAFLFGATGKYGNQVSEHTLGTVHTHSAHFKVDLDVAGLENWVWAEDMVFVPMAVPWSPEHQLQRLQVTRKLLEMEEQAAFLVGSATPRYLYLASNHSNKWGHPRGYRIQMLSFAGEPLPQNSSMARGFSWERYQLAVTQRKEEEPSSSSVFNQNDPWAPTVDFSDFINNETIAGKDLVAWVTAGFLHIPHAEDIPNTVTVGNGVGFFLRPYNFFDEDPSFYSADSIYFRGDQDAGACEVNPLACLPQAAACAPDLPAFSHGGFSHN
The assay can be described thus: Activity on recombinant human VAP-1, HRP-coupled Amplex Red hydrogen peroxide assay. Conditions: substrate 1 mM benzylamine; compound incubated with enzyme at 37° C. for 30 minutes; pH 7.4; read-out: Inhibitory Activity (IC50, nM) human VAP-1. On the procedure:
(§1) The compounds according to the present technology were evaluated in terms of activity on recombinant human VAP-1 (R&D systems) by measuring the level of hydrogen peroxide in horseradish peroxidase (HRP)-coupled reaction using Amplex Red Hydrogen Peroxide Assay Kit (Molecular Probes, Invitrogen, USA). The experiment was carried out at room temperature using benzylamine as a substrate. In the HRP-coupled reaction, hydrogen peroxide oxidation of 10-acetyl-3,7-dihydroxyphenoxazine (Amplex Red reagent) produces resorufin, which is a highly fluorescent compound. Briefly, the test compound was dissolved in dimethyl sulfoxide (DMSO) at a concentration of 20 mM. The dose-response assessment was made by 1:3 serial dilution in DMSO, thereby creating an 8 point curve. The concentration of the upper part was controlled according to the efficacy of the compounds, followed by dilution with a reaction buffer solution to obtain a final DMSO concentration less than 1%. To each well of a 96 black well plate, human VAP-1 purified in 50 mM sodium phosphate buffer solution (pH7.4) was added. The test compounds dissolved in DMSO were incubated with the human VAP-1 enzymes at 37° C. for 30 minutes. After 30-minute incubation, each well is added with a reaction mixture containing 200 uM Amplex Red reagent prepared from 50 mM sodium phosphate buffer solution (pH 7.4), 1 mM benzylamine, and 1 U/mL HRP. Fluorescence intensity was measured at several time points during 1-2 hours using a microplate reader (Flexstation3, Molecular Devices) under the wavelength condition exciting at 544 nm and reading the emission at 590 nm. The inhibitory effect of the compounds was measured as a decrease (%) in the signal rate as compared to the control group without any inhibitor (only diluted DMSO). Data was fixed to a logistic model with four variables and IC50 value was calculated using GraphPad Prism program.

For assay [2], the target named is T2, recombinant human MAO-A (monoamine oxidase-A) (Homo sapiens, UniProt P21397).
T2 construct: purchased Sigma-Aldrich
T2 sequence (P21397 1-527): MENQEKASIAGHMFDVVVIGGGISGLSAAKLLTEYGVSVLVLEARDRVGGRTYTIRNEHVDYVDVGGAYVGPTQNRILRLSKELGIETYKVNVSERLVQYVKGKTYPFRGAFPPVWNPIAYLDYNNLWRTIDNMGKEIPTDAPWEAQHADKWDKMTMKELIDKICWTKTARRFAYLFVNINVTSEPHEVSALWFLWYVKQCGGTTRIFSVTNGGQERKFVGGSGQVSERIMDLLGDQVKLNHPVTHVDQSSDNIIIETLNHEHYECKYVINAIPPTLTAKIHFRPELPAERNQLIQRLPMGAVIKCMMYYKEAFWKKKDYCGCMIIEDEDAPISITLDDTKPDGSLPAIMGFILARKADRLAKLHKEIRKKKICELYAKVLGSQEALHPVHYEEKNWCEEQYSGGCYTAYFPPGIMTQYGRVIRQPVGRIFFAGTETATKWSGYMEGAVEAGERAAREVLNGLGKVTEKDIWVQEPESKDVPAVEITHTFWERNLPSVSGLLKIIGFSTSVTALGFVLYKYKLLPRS
The assay can be described thus: Activity on recombinant human MAO-A, method similar to the VAP-1 assay. Conditions: substrate 0.5 mM tyramine; read-out: Inhibitory Activity (IC50, nM) MAO-A. On the procedure: as §1
(§2) In addition, the compounds according to the present technology were evaluated in terms of activity on a recombinant human MAO-A (monoamine oxidase-A, Sigma-Aldrich) and a recombinant human MAO-B (monoamine oxidase-B, Sigma-Aldrich) by using as substrates, 0.5 mM tyramine and 1 mM benzylamine, respectively, with a method similar to the activity evaluation method for recombinant human VAP-1. The compounds according to the present technology were also evaluated in terms of activity on a recombinant human DAO (diamine oxidase, R&D systems) by using as a substrate 1 mM putrescine with a method similar to the activity evaluation method for recombinant human VAP-1.

Assay [3] concerns the target T3, recombinant human DAO (diamine oxidase) (Homo sapiens, UniProt P19801).
T3 construct: purchased R&D systems
T3 sequence (P19801 20-751): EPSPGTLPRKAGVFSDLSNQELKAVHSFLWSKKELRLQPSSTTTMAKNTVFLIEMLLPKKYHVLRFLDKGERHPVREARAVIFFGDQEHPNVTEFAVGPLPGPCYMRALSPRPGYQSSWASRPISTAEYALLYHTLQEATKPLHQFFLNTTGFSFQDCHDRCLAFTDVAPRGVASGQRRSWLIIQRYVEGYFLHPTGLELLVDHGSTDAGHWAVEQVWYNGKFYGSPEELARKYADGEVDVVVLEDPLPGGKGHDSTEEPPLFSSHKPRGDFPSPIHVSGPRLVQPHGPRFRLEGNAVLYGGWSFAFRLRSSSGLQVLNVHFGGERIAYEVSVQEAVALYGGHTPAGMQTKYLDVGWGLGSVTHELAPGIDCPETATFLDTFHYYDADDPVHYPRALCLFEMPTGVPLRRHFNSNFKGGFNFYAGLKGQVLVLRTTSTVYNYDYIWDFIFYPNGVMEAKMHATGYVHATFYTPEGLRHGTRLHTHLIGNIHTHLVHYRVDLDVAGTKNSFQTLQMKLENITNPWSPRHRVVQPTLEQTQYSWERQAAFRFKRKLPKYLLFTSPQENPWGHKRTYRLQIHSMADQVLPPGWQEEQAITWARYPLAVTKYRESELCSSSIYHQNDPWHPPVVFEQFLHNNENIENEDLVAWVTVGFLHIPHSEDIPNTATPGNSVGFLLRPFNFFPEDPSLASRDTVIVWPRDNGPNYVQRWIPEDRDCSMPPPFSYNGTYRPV
The assay can be described thus: Activity on recombinant human DAO, method similar to the VAP-1 assay. Conditions: substrate 1 mM putrescine; read-out: Inhibitory Activity (IC50, nM) DAO. The method, then: as §1, §2

Where a name gives a salt, the structure may show the parent alone.

Regarding `NC/C(=C/F)Cn1ncn(Cc2ccc(-c3ccc(-c4nnc[nH]4)cc3)s2)c1=O` [Example 30, 2-[(2Z)-2-(aminomethyl)-3-fluoroprop-2-en-1-yl]-4-(5-[4-(4H-1,2,4-triazol-3-yl)phenyl]thiophen-2-ylmethyl)-2,4-dihydro-3H-1,2,4-triazol-3-one], the IC50 – broadly, the concentration needed to halve the response being measured – in assay [1] came out at 0.97 nM.

With `N#Cc1ncc(-c2ccc(Cn3cnn(C/C(=C/F)CN)c3=O)s2)cn1` [Example 54, 5-[5-(1-[(2E)-2-(aminomethyl)-3-fluoroprop-2-en-1-yl]-5-oxo-1,5-dihydro-4H-1,2,4-triazol-4-ylmethyl)thiophen-2-yl]pyrimidine-2-carbonitrile hydrochloride], the IC50 was 1.7 nM in assay [1], over 10000 nM in assay [2] and 110 nM in assay [3].

With `NC/C(=C/F)Cn1ncn(Cc2ccc(-c3ccc(C(=O)N4CCOCC4)cc3)s2)c1=O` [Example 26, 2-[(2Z)-2-(aminomethyl)-3-fluoroprop-2-en-1-yl]-4-(5-[4-(morpholin-4-ylcarbonyl)phenyl]thiophen-2-ylmethyl)-2,4-dihydro-3H-1,2,4-triazol-3-one hydrochloride], in assay [1], the IC50 is 1.4 nM.

As for `NC/C(=C/F)Cn1ncn(Cc2ccc(-c3ccc4c(c3)NC(=O)CO4)s2)c1=O` [Example 89, 6-[5-(1-[(2Z)-2-(aminomethyl)-3-fluoroprop-2-en-1-yl]-5-oxo-1,5-dihydro-4H-1,2,4-triazol-4-ylmethyl)thiophen-2-yl]-2H-1,4-benzoxazin-3(4H)-one hydrochloride], the IC50 in assay [1] was determined as 1.9 nM.

With `Cc1cc(-c2ccc(Cn3cnn(C/C(=C\F)CN)c3=O)s2)cc2c1NC(=O)CC2` [Example 76, 6-[5-(1-[(2Z)-2-(aminomethyl)-3-fluoroprop-2-en-1-yl]-5-oxo-1,5-dihydro-4H-1,2,4-triazol-4-ylmethyl)thiophen-2-yl]-8-methyl-3,4-dihydroquinolin-2(1H)-one hydrochloride], the IC50 in assay [1] was 2.7 nM.

In the case of `COc1ccc(-c2ccc(Cn3cnn(C/C(=C\F)CN)c3=O)s2)cn1` [Example 44, 2-[(2Z)-2-(aminomethyl)-3-fluoroprop-2-en-1-yl]-4-[5-(6-methoxypyridin-3-yl)thiophen-2-yl]methyl-2,4-dihydro-3H-1,2,4-triazol-3-one hydrochloride], in assay [1], the IC50 stood at 1.9 nM.

With `NC/C(=C/F)Cn1ncn(CCc2cccs2)c1=O` [Example 140, 2-[(2Z)-2-(aminomethyl)-3-fluoroprop-2-en-1-yl]-4-[2-(thiophen-2-yl)ethyl]-2,4-dihydro-3H-1,2,4-triazol-3-one], the IC50 in assay [1] was determined as 31 nM.

Take `CC(=O)Nc1cc(-c2ccc(Cn3cnn(C/C(=C\F)CN)c3=O)s2)ccn1` [Example 41, N-4-[5-(1-[(2Z)-2-(aminomethyl)-3-fluoroprop-2-en-1-yl]-5-oxo-1,5-dihydro-4H-1,2,4-triazol-4-ylmethyl)thiophen-2-yl]pyridin-2-ylacetamide hydrochloride]: in assay [1], the IC50 is 1.3 nM.

For the molecule `COCCNc1ncc(-c2ccc(Cn3cnn(C/C(=C/F)CN)c3=O)s2)cn1` [Example 53, 2-[(2E)-2-(aminomethyl)-3-fluoroprop-2-en-1-yl]-4-[(5-2-[(2-methoxyethyl)amino]pyrimidin-5-ylthiophen-2-yl)methyl]-2,4-dihydro-3H-1,2,4-triazol-3-one hydrochloride], the IC50 in assay [1] is 2.6 nM; in assay [2] it was over 100000 nM; in assay [3], 380 nM.

On to `NC/C(=C/F)Cn1ncn(Cc2ccc(-c3cccc(-c4nnc[nH]4)c3)s2)c1=O` [Example 32, 2-[(2Z)-2-(aminomethyl)-3-fluoroprop-2-en-1-yl]-4-(5-[3-(4H-1,2,4-triazol-3-yl)phenyl]thiophen-2-ylmethyl)-2,4-dihydro-3H-1,2,4-triazol-3-one], for which the IC50 in assay [1] was found to be 1.2 nM.

Take `NC/C(=C/F)Cn1ncn(Cc2ccc(-c3ccc(N4CCOCC4)nc3)s2)c1=O` [Example 51, 2-[(2Z)-2-(aminomethyl)-3-fluoroprop-2-en-1-yl]-4-(5-[6-(morpholin-4-yl)pyridin-3-yl]thiophen-2-ylmethyl)-2,4-dihydro-3H-1,2,4-triazol-3-one hydrochloride]: the IC50 in assay [1] was 0.75 nM.

In the case of `NC/C(=C/F)Cn1ncn(Cc2ccc(-c3ccc4c(c3)NC(=O)OC4)s2)c1=O` [Example 99, 7-[5-(1-[(2Z)-2-(aminomethyl)-3-fluoroprop-2-en-1-yl]-5-oxo-1,5-dihydro-4H-1,2,4-triazol-4-ylmethyl)thiophen-2-yl]-1,4-dihydro-2H-3,1-benzoxazin-2-one hydrochloride], the IC50 in assay [1] came out at 1.2 nM.

As for `NC/C(=C/F)Cn1ncn(Cc2ccc(-c3ccc(C(F)(F)F)nc3)s2)c1=O` [Example 48, 2-[(2Z)-2-(aminomethyl)-3-fluoroprop-2-en-1-yl]-4-(5-[6-(trifluoromethyl)pyridin-3-yl]thiophen-2-ylmethyl)-2,4-dihydro-3H-1,2,4-triazol-3-one hydrochloride], in assay [1], the IC50 was 1.6 nM.
